Where two headings read alike, the source gives them in different places.
Tests used:
[1] = biological target: T1, TARC binding to Hut78 cells (Homo sapiens, UniProt P51679); assay: Inhibitory activity on binding of [125I]-TARC to Hut78 cells; conditions: for inhibition at 1 µM: read-out: The Binding Inhibitory Rates at 1 μmol/L (%)
T1 construct: host or cells: Hut78 cells (whole cells)
T1 sequence (P51679 1-360): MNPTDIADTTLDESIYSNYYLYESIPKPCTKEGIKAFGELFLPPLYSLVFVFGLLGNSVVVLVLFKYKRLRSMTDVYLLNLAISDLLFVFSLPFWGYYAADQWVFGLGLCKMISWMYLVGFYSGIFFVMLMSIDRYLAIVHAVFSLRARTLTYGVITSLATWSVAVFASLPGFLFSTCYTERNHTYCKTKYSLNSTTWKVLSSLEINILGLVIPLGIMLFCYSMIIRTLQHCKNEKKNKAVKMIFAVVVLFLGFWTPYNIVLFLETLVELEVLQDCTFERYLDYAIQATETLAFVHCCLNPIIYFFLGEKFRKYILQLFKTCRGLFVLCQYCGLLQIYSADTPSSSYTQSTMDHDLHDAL
Procedure: Inhibitory Activity on Binding of [^125I]-TARC to Hut78 Cells
The RPMI-1640 medium (Sigma-Aldrich Japan) containing 20 mmol/L HEPES [4-(2-hydroxyethyl)-1-piperazinylethanesulfonic acid; HEPES, Nacalai Tesque, Inc.] and 0.1 w/v % bovine serum albumin (SEIKAGAKU CORPORATION) was adjusted to pH 7.0 with sodium hydrogencarbonate (Wako Pure Chemical Industries, Ltd.) to yield a binding/wash buffer. In a 96-well round-bottomed plate (Corning Costar Corporation) were placed 60 μL of a suspension of Hut78 cells (ATCC No. TIB-161) (3×10^5 cells) in the binding/wash buffer, 20 μL of a solution of a test compound and 20 μL of a solution of 810 Bq of [^125I]-TARC (Amersham Biosciences K.K.) diluted with the binding/wash buffer up to the total aliquot of 100 μL, followed by reaction at room temperature for two hours. The solution of the test compound had been prepared by dissolving the test compound in dimethyl sulfoxide (Nacalai Tesque, Inc.) to a concentration of 10 mmol/L, and diluting the solution with the binding/wash buffer to a series of concentrations. The nonspecific binding was determined by a binding assay in the presence of a sufficient amount of unlabeled TARC. The total binding was defined as a binding in the case where dimethyl sulfoxide (Nacalai Tesque, Inc.) was added, instead of the test compound, in the same concentration (0.1 v/v %). After binding [^125I]-TARC to Hut78 cells, 50 μL of a polyethyleneimine solution (Nacalai Tesque, Inc.) diluted to 0.3 w/v % with the binding/wash buffer was added each of wells of a glass filter (Unifilter GF/B96, Packard BioScience Company), was rapidly filtrated using Filtermate 196 (Packard BioScience Company) and washed with the binding/wash buffer at 4° C. to thereby separate the radioactive ligand which is not bound to the cells. Microscinti 20 (Packard BioScience Company) was placed in each well at 50 μL/well, and the radioactivity on the glass filter was determined using Topcount NXT™ (Packard BioScience Company). The binding inhibitory rates (%) of the test compounds were determined by calculation according to the following equation: [formula] Total binding: [^125I]-TARC binding radioactivity without addition of the test compound Binding upon addition of test compound: [^125I]-TARC binding radioactivity at respective concentration upon addition of test compound
Nonspecific binding: [^125I]-TARC binding radioactivity upon addition of unlabeled TARC

[2] = test system: CD4-positive T cells and eosinophils in the bronchoalveolar lavage fluid; assay: Inhibitory activities on antigen-induced cellular infiltration (ovalbumin-sensitized mice, bronchoalveolar lavage fluid); assay type: in vivo, BALB/c mice
Procedure: Inhibitory Activities on Antigen-Induced Cellular Infiltration and Cytokine Production
BALB/c mice were sensitized by intraperitoneally administrating 50 μg of ovalbumin (Sigma-Aldrich Japan) and 1 mg of aluminum hydroxide (Wako Pure Chemical Industries, Ltd.) and further sensitized in the same manner on the 7th day from the first sensitization (0 day). From on the 23rd day, the mice were allowed to inhale a 1% ovalbumin physiological saline solution [prepared by dissolving ovalbumin in physiological saline (Otsuka Pharmaceutical Co., Ltd.) to a concentration 1%] using Supersonic Nebulizer NE-U 12 (OMRON Corporation) for 30 minutes once per 2 days (antigen nebulization). DMSO (Kanto Kagaku), Tween 80 (Wako Pure Chemical Industries), and 10 mmol/L acetic acid buffer containing 0.9% sodium chloride were mixed at a ratio of 5 to 5 to 90, whereby a liquid (an administration solvent) was prepared. Each test compound was dissolved in the administration solvent, whereby a solution for subcutaneous administration was prepared. The mice were grouped into test compound-administered groups and a control group. The test compound was subcutaneously administered to the mice of each of the test compound-administered groups at a dose of 30 mg/kg and the administration solvent was subcutaneously administered to the mice of the control group 30 minutes prior to the fourth antigen nebulization and after 4 hours from the fourth antigen nebulization. 8 hours after the fourth antigen nebulization, the bronchoalveolar lavage of each mouse was performed to obtain a bronchoalveolar lavage fluid. The number of CD4-positive T cells and eosinophils in the bronchoalveolar lavage fluid were counted. 10 mice were subjected to the each group in the test.

[3] = test compound 1 μmol/L, [125I]-TARC, Hut78 cells, room temperature, two hours

inhibition at 1 µM [1, 3] [%]	Molecule	The Binding Inhibitory Rates at 1 μmol/L (%) [1, 3] [%]	inhibition at 1 µM [1] [%]	other results
–	4-(2,4-difluorobenzylamino)-5-(2,4-difluorophenyl)-2-[4-(1-methylpiperidinio)piperidino]pyrimidine iodide [Compound 72]	96	–	–
–	CC1CCCN(C2CCN(c3ncc(-c4ccc(F)cc4F)c(NCc4ccc(F)cc4F)n3)CC2)C1 (centres unmarked) [Compound 1, 4-(2,4-difluorobenzylamino)-5-(2,4-difluorophenyl)-2-[4-(3-methylpiperidino)piperidino]pyrimidine]	–	91	–
–	CC1CCCCN1C1CCN(c2ncc(-c3ccc(F)cc3F)c(NCc3ccc(F)cc3F)n2)CC1 (centres unmarked) [Compound 3, 4-(2,4-difluorobenzylamino)-5-(2,4-difluorophenyl)-2-[4-(2-methylpiperidino)piperidino]pyrimidine]	–	93	–
92	NC(=O)C1CCCN(C2CCN(c3ncc(-c4ccc(F)cc4F)c(NCc4ccc(F)cc4F)n3)CC2)C1 (centres unmarked) [Compound 8, 2-[4-(3-carbamoylpiperidino)piperidino]-4-(2,4-difluorobenzylamino)-5-(2,4-difluorophenyl)pyrimidine]	–	–	number of eosinophils in a bronchoalveolar lavage fluid obtained from each mouse ([2]; 30 mg/kg subcutaneously 30 minutes prior to and 4 hours after fourth antigen nebulization, lavage 8 hours after, mean±standard error, control (1.5±0.1)×10^5): (0.6±0.1)×10^5; number of CD4-positive T cells in a bronchoalveolar lavage fluid obtained from each mouse ([2]; 30 mg/kg subcutaneously 30 minutes prior to and 4 hours after fourth antigen nebulization, lavage 8 hours after, mean±standard error, control (1.9±0.2)×10^4): (0.6±0.1)×10^4; number of CD4-positive T cells less than that of the control group ([2]; 30 mg/kg subcutaneously, bronchoalveolar lavage fluid, P<0.0001, Aspin-Welch test): 68%; number of eosinophils less than that of the control group ([2]; 30 mg/kg subcutaneously, bronchoalveolar lavage fluid, P<0.0001, Student's test): 57%
–	CC1CCCN(C2CCN(c3ncc(-c4ccc(F)cc4F)c(NCc4c(F)cccc4F)n3)CC2)C1 (centres unmarked) [Compound 15, 4-(2,6-difluorobenzylamino)-5-(2,4-difluorophenyl)-2-[4-(3-methylpiperidino)piperidino]pyrimidine]	–	90	–
89	Fc1ccc(-c2cnc(N3CCC(N4CCCCC4)CC3)nc2NCc2c(F)cccc2F)c(F)c1 [Compound 40, 4-(2,6-difluorobenzylamino)-5-(2,4-difluorophenyl)-2-(4-piperidinopiperidino)pyrimidine]	–	–	–
81	Fc1ccc(-c2cnc(N3CCC(N4CCCCC4)CC3)nc2NCc2ccc(Cl)cc2F)c(F)c1 [Compound 58, 4-(4-chloro-2-fluorobenzylamino)-5-(2,4-difluorophenyl)-2-(4-piperidinopiperidino)pyrimidine]	–	–	–
82	Fc1ccc(-c2cnc(N3CCC(N4CCCCC4)CC3)nc2NCc2c(F)cccc2Cl)c(F)c1 [Compound 61, 4-(2-chloro-6-fluorobenzylamino)-5-(2,4-difluorophenyl)-2-(4-piperidinopiperidino)pyrimidine]	–	–	–
–	CC[N+]1(C2CCN(c3ncc(-c4ccc(F)cc4F)c(NCc4ccc(F)cc4F)n3)CC2)CCCCC1.[I-] [Compound 73, 4-(2,4-difluorobenzylamino)-5-(2,4-difluorophenyl)-2-[4-(1-ethylpiperidinio)piperidino]pyrimidine iodide]	99	–	–
–	C=CC[N+]1(C2CCN(c3ncc(-c4ccc(F)cc4F)c(NCc4ccc(F)cc4F)n3)CC2)CCCCC1.[Br-] [Compound 75, 2-[4-(1-allylpiperidinio)piperidino]-4-(2,4-difluorobenzylamino)-5-(2,4-difluorophenyl)pyrimidine bromide]	97	–	–

Reference: US20060194811A1, “Pyrimidine derivatives” (KYOWA HAKKO KOGYO CO., LTD., priority 2003, published 2006)
